The values that follow come from PubChem BioAssay (NCI).

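Briefly, cells in 96-well plates were exposed to five compound concentrations for 48 h, and endpoints were estimated by linear interpolation. The concentration for 50% growth inhibition is given as GI50. TGI marks complete inhibition of growth.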

Common to all, as to assay: inhibition of tumour cell growth, NCI panel, 48 h
For assay [1], the system named is A549 NSCLC.
In assay [2] the test system is LOX IMVI melanoma.
Assay [3] deals with MDA-MB-231 breast.
The subject of assay [4] is NCI-H460 lung.
The test system of assay [5] is SF-539 CNS.
Assay [6] has as its system SK-MEL-28 melanoma.
Assay [7] deals with SNB-75 CNS.
Assay [8] concerns UACC-257 melanoma.

Regarding `COc1cc2c(cc1O)C(c1cc(O)c(O)c(OC)c1)C(O)(C(=O)O)C(CO)C2O` (stereo unspecified), the TGI in assay [1] was > 100 µM; in assay [2], 33.3 µM; in assay [3] it was > 100 µM; in assay [4], > 100 µM; in assay [5] it was > 100 µM; in assay [6] it was > 100 µM. The TGI in assay [7] and in assay [8] was > 100 µM in each case.

As to `CNCCCn1c2c(c3ccc(F)cc3c1=O)C(=O)c1cc(OC)cnc1-2`, the GI50 in assay [1] was 0.105 µM; in assay [2] it was 0.142 µM; in assay [3], 0.7 µM; in assay [4], 0.0492 µM; in assay [5], 0.368 µM; in assay [6] it was 1.44 µM. Besides, the GI50 in assay [7] was 0.252 µM; in assay [8], 0.485 µM. The TGI in assay [1] turned out to be 0.288 µM; in assay [2], 0.375 µM; in assay [3], 2.38 µM; in assay [4], 0.261 µM; in assay [5] it was 1.36 µM; in assay [6] it was 3.94 µM. Also, the figures for the TGI in assay [7] and in assay [8] were 3.28 µM and 1.9 µM, respectively.

Consider `CN1CCN(c2ccc(C(=O)Nc3cccc(C#Cc4cccc5[nH]nc(N)c45)c3)cc2C(F)(F)F)CC1`, for which the GI50 in assay [1] is 0.767 µM; in assay [2], 0.59 µM; in assay [3], 0.568 µM; in assay [4] it was 0.701 µM; in assay [5] it was 0.544 µM; in assay [6], 0.631 µM. The GI50 in assay [7] is 0.624 µM; in assay [8], 1.93 µM. In addition, the TGI in assay [1] was 2.02 µM; in assay [2], 1.08 µM; in assay [3], 1.35 µM; in assay [4], 1.5 µM; in assay [5] it was 1.16 µM; in assay [6], 1.25 µM. Besides, the TGI in assay [7] was 1.62 µM; in assay [8], 4.53 µM.

For the molecule `CC(=O)/C(=C\c1c(-c2ccccc2)[nH]c2ccccc12)S(=O)(=O)c1ccccc1`, the GI50 in assay [1] is 6.73 µM; in assay [2], 1.39 µM; in assay [3], 1.74 µM; in assay [4], 1.04 µM; in assay [5], 1.31 µM; in assay [6] it was 1.87 µM. The GI50 in assay [7] was 1.59 µM; in assay [8], 2.23 µM. In addition, the TGI in assay [1] was 41.9 µM; in assay [2] it was 3.27 µM; in assay [3], 19.2 µM; in assay [4], 2.68 µM; in assay [5], 3.08 µM; in assay [6] it was 7.02 µM. Moreover, the values for the TGI in assay [7] and in assay [8] were 14.6 µM and 8.58 µM, respectively.

For the molecule `CC(C)(C)OC(=O)NCCCCCCCCCCn1c2c(c3ccccc3c1=O)C(=O)c1ccccc1-2`, the GI50 is > 100 µM in assay [1]; > 100 µM in assay [2]; 17.9 µM in assay [3]; > 100 µM in assay [4]; 43.1 µM in assay [5]; > 100 µM in assay [6]. Also, the results for the GI50 in assay [7] and in assay [8] were 5.92 µM and > 100 µM, respectively. Besides, the TGI in assay [1] is > 100 µM; in assay [2], > 100 µM; in assay [3], 85.9 µM; in assay [4] it was > 100 µM; in assay [5], > 100 µM; in assay [6], > 100 µM. The TGI was 28.6 µM in assay [7] and > 100 µM in assay [8].

Turning to `Clc1ccc(N2CCC(N3CCCC3)CC2)cc1-c1nc2ccccc2[nH]1`, the GI50 in assay [1] was 27.2 µM; in assay [2], 18.1 µM; in assay [3], 17.1 µM; in assay [4] it was 22.9 µM; in assay [5] it was 17 µM; in assay [6], 16.5 µM. Also, the GI50 in assay [7] is 15.5 µM; in assay [8], 17 µM. The TGI in assay [1] was > 84.4 µM; in assay [2], 35.5 µM; in assay [3], 32.5 µM; in assay [4], 50.1 µM; in assay [5], 32.1 µM; in assay [6] it was 31.2 µM. Besides, the TGI in assay [7] amounted to 39 µM; in assay [8] it was 32.9 µM.

With `O=c1cc(O)c2c(O)cc(O)cc2o1`, the TGI in assay [1], in assay [2], in assay [3], in assay [4], in assay [5] and in assay [6] was > 100 µM throughout. The TGI in assay [7] and in assay [8] was > 100 µM in each case.

For the molecule `C#C/C=C/CC1OC(C(Br)CC)CC(Br)C2CC1O2` (stereo unspecified), the TGI in assay [1] is > 100 µM; in assay [2], 3.39 µM; in assay [3], > 100 µM; in assay [4], > 100 µM; in assay [5], > 100 µM; in assay [6], > 100 µM. Besides, the TGI in assay [7] and in assay [8] was > 100 µM throughout.

With `Cc1ncc(-c2ccnc(Nc3ccc(S(C)(=O)=O)cc3)n2)n1C(C)C`, the GI50 in assay [1] is 1.34 µM; in assay [2], 0.537 µM; in assay [3] it was 1.88 µM; in assay [4], 0.931 µM; in assay [5] it was 0.56 µM; in assay [6], 1.28 µM. For the same molecule, the GI50 in assay [7] is 0.377 µM; in assay [8], 1.94 µM. Moreover, the TGI is > 10 µM in assay [1]; 9.94 µM in assay [2]; > 9.48 µM in assay [3]; > 5.33 µM in assay [4]; 2.71 µM in assay [5]; > 5.69 µM in assay [6]. For the same molecule, the figures for the TGI in assay [7] and in assay [8] were 2.58 µM and 5.62 µM, respectively.

As for `CCc1ncnc2cc(OCC3CO3)c(OC)cc12` (stereo unspecified), the TGI is > 100 µM in assay [1]; > 46.9 µM in assay [2]; 60.9 µM in assay [3]; 43.8 µM in assay [4]; 25.2 µM in assay [5]; 37.4 µM in assay [6]. Also, the results for the TGI in assay [7] and in assay [8] were 53.7 µM and 52.9 µM, respectively.

On to `C[n+]1c(/C=C/c2ccc(/C=N/NC(=O)c3ccc(C(=O)N/N=C/c4ccc(/C=C/c5cn6ccccc6[n+]5C)cc4)cc3)cc2)cn2ccccc21`, for which the TGI in assay [1], in assay [2], in assay [3], in assay [4], in assay [5] and in assay [6] was > 100 µM in each case. Further, the TGI in assay [7] and in assay [8] was > 100 µM each time.
